The record followed here is US20050014706A1, “Method of treating tuberculosis” (priority 2003, published 2005).

Converted amounts (≈) assume the structure as drawn. Where two headings read alike, the source gives them in different places.

In assay [1] the test system is M. tuberculosis H37Rv. In words: MIC vs. M. tuberculosis H37Rv, microplate Alamar Blue assay (MABA). The format is cell-based.
For assay [2], the system named is VERO cells. In words: Cytotoxicity against VERO cells (MTS, 72 hours). The following applies: read-out: Vero IC50 (toxicity).
Assay [3] concerns J774.1 macrophage cell line. Nature of the assay: Cytotoxicity against J774.1 macrophage cell line. It counts as cell-based, murine. As to conditions: J774 cells, read-out: J774 IC50 (toxicity).
Where [4] appears, read: Table 1a, 11,12-carbamate derivatives, read-out: Anti-TB Activity MIC.
Setting [5] is: Table 2a, 11,12-diols, read-out: Anti-TB Activity MIC.
Where [6] appears, read: Table 3, parallel-synthesis carbazate library products.

On to `CC[C@H]1OC(=O)[C@H](C)[C@@H](O[C@H]2CC(C)(OC)[C@@H](O)[C@H](C)O2)[C@H](C)[C@@H](O[C@@H]2O[C@H](C)C[C@H](N(C)C)[C@H]2O)[C@](C)(OC)C[C@@H](C)C(=O)[C@H](C)[C@H]2N(CCCCc3ccnc4ccccc34)C(=O)O[C@]12C` (stereo partly drawn) [RU66080], for which, in assay [1] (setting [4]), the MIC (as a rule, the lowest concentration that inhibits growth of the organism) is recorded as 0.44 µM (≈ 0.421 µg/mL). In addition, the IC50 (usually the midpoint of a concentration-inhibition curve) turned out to be 8.1 µM in assay [2] (Table 1a, Vero cells) and 4.95 µM in assay [3] (Table 1a).

Take `CO[C@H]1/C=C/O[C@@]2(C)Oc3c(C)c(O)c4c(O)c(c(/C=N/N5CCN(C)CC5)c(O)c4c3C2=O)NC(=O)/C(C)=C\C=C\[C@H](C)[C@H](O)[C@@H](C)[C@@H](O)[C@@H](C)[C@H](OC(C)=O)[C@@H]1C` [RMP, Rifampin, reference compound]: the MIC in assay [1] (Mycobacterium tuberculosis, H37RV, Table 1a, 11,12-carbamate derivatives, read-out: Anti-TB Activity MIC) worked out at 0.076 µM (≈ 0.0625 µg/mL). Besides, the IC50 in assay [2] (Chlorocebus sabaeus, Vero) turned out to be 46.7 µM; in assay [3] (Mus musculus, J774.1, Table 1a) it was 32.7 µM.

For `CC[C@H]1OC(=O)[C@H](C)C(=O)[C@H](C)[C@@H](O[C@@H]2O[C@H](C)C[C@H](N(C)C)[C@H]2O)[C@](C)(OC)C[C@@H](C)C(=NOC2CCCN(C/C=C/c3ccc(-c4ccccc4)cc3)C2)[C@H](C)[C@@H](O)[C@]1(C)O` (stereo partly drawn) [RU61804], the MIC in assay [1] (setting [5]) was 0.5 µM (≈ 0.439 µg/mL). Besides, the IC50 was 9.12 µM in assay [2] (Table 2a, Vero cells) and 3.9 µM in assay [3] (Table 2a).

For the compound “cethromycin [ABT773, reference compound]”, the “MIC against M. tuberculosis” value in assay [1] was determined as 3 µM. The MIC in assay [1] (setting [4]) is on record as 3 µM. Further, in assay [2] (Table 1a, Vero cells), the IC50 is greater than 105 µM.

In the case of `CC[C@H]1OC(=O)[C@H](C)[C@@H](O[C@H]2CC(C)(OC)[C@@H](O)[C@H](C)O2)[C@H](C)[C@@H](O[C@@H]2O[C@H](C)C[C@H](N(C)C)[C@H]2O)[C@](C)(OC)C[C@@H](C)C(=O)[C@H](C)[C@H]2N(NCc3sccc3Oc3ccccc3)C(=O)O[C@]12C` (stereo partly drawn) [G4′], in assay [1] (setting [6]), the MIC is 13 µM (≈ 12.7 µg/mL).

With `CC[C@H]1OC(=O)[C@H](C)[C@@H](O[C@H]2CC(C)(OC)[C@@H](O)[C@H](C)O2)[C@H](C)[C@@H](O[C@@H]2O[C@H](C)C[C@H](N(C)C)[C@H]2O)[C@](C)(OC)C[C@@H](C)C(=O)[C@H](C)[C@H]2N(NCCCc3ccccc3)C(=O)O[C@]12C` (stereo partly drawn) [A2′], the MIC in assay [1] (setting [6]) was determined as 10 µM (≈ 9.06 µg/mL).

In turn, `CC[C@H]1OC(=O)[C@H](C)[C@@H](O[C@H]2CC(C)(OC)[C@@H](O)[C@H](C)O2)[C@H](C)[C@@H](O[C@@H]2O[C@H](C)C[C@H](N(C)C)[C@H]2O)[C@](C)(OC)C[C@@H](C)C(=O)[C@H](C)[C@H]2N(NCc3ccc4c(c3)nnn4C)C(=O)O[C@]12C` (stereo partly drawn) [H7′] yielded an MIC in assay [1] (setting [6]) greater than 22 µM.

Turning to `CC[C@H]1OC(=O)[C@H](C)[C@@H](O[C@H]2CC(C)(OC)[C@@H](O)[C@H](C)O2)[C@H](C)[C@@H](O[C@@H]2O[C@H](C)C[C@H](N(C)C)[C@H]2O)[C@](C)(OC)C[C@@H](C)C(=O)[C@H](C)[C@H]2N(/N=C/c3cc(-c4cccs4)on3)C(=O)O[C@]12C` (stereo partly drawn) [C8′], the MIC result in assay [1] (setting [6]) is “?9 μM”.

In the case of `CC[C@H]1OC(=O)[C@H](C)[C@@H](O[C@H]2C[C@@](C)(OC)[C@@H](O)[C@H](C)O2)[C@H](C)[C@@H](O[C@@H]2O[C@H](C)C[C@H](N(C)C)[C@H]2O)[C@](C)(O)C[C@@H](C)/C(=N\OCOCc2ccccc2)[C@H](C)[C@@H](O)[C@]1(C)O` [RU29558], in assay [1] (setting [5]), the MIC is 7 µM (≈ 6.08 µg/mL). In addition, in assay [2] (Table 2a, Vero cells), the IC50 came to 28.2 µM.

In assay [1] (setting [6]), `CC[C@H]1OC(=O)[C@H](C)[C@@H](O[C@H]2CC(C)(OC)[C@@H](O)[C@H](C)O2)[C@H](C)[C@@H](O[C@@H]2O[C@H](C)C[C@H](N(C)C)[C@H]2O)[C@](C)(OC)C[C@@H](C)C(=O)[C@H](C)[C@H]2N(NCc3c(-c4ccccc4)noc3C)C(=O)O[C@]12C` (stereo partly drawn) [C10′] registered an MIC of 12 µM (≈ 11.5 µg/mL).

As for `CC[C@H]1OC(=O)[C@H](C)[C@@H](O[C@H]2CC(C)(OC)[C@@H](O)[C@H](C)O2)[C@H](C)[C@@H](O[C@@H]2O[C@H](C)C[C@H](N(C)C)[C@H]2O)[C@](C)(OC)C[C@@H](C)C(=O)[C@H](C)[C@H]2N(NCc3ccoc3)C(=O)O[C@]12C` (stereo partly drawn) [A10′], in assay [1] (setting [6]), the MIC was greater than 7 µM.

Turning to `CC[C@H]1OC(=O)[C@H](C)[C@@H](O[C@H]2CC(C)(OC)[C@@H](O)[C@H](C)O2)[C@H](C)[C@@H](O[C@@H]2O[C@H](C)C[C@H](N(C)C)[C@H]2O)[C@](C)(OC)C[C@@H](C)C(=O)[C@H](C)[C@H]2N(NCc3cccn3-c3ccc(Cl)cc3)C(=O)O[C@]12C` (stereo partly drawn) [E12′], in assay [1] (setting [6]), the MIC stood at 3.4 µM (≈ 3.32 µg/mL).

As for `CC[C@H]1OC(=O)[C@H](C)[C@@H](O[C@H]2CC(C)(OC)[C@@H](O)[C@H](C)O2)[C@H](C)[C@@H](O[C@@H]2O[C@H](C)C[C@H](N(C)C)[C@H]2O)[C@](C)(OC)C[C@@H](C)C(=O)[C@H](C)[C@H]2N(NCc3ccc(N4CCC(c5ccccc5OC)CC4)c([N+](=O)[O-])c3)C(=O)O[C@]12C` (stereo partly drawn) [G12′], the MIC in assay [1] (setting [6]) was found to be 19 µM (≈ 21.1 µg/mL).

`CC[C@H]1OC(=O)[C@H](C)[C@@H](O[C@H]2CC(C)(OC)[C@@H](O)[C@H](C)O2)[C@H](C)[C@@H](O[C@@H]2O[C@H](C)C[C@H](N(C)C)[C@H]2O)[C@](C)(OC)C[C@@H](C)C(=O)[C@H](C)[C@H]2N(NCc3c[nH]c(=O)[nH]c3=O)C(=O)O[C@]12C` (stereo partly drawn) [E8′]: the MIC in assay [1] (setting [6]) was greater than 20 µM.

Take `CC[C@H]1OC(=O)[C@H](C)C(=O)[C@H](C)[C@@H](O[C@@H]2O[C@H](C)C[C@H](N(C)C)[C@H]2O)[C@](C)(OC)C[C@@H](C)C(=O)[C@H](C)[C@H]2N(CCCn3cnc4c3c(=O)n(C)c(=O)n4C)C(=O)O[C@]12C` [RU66740]: the MIC in assay [1] (setting [4]) is given as greater than 128 µM.

As for `CC[C@H]1OC(=O)[C@H](C)[C@@H](O[C@H]2CC(C)(OC)[C@@H](O)[C@H](C)O2)[C@H](C)[C@@H](O[C@@H]2O[C@H](C)C[C@H](N(C)C)[C@H]2O)[C@](C)(OC)C[C@@H](C)C(=O)[C@H](C)[C@H]2N(NCc3cccnc3NC(=O)C(C)(C)C)C(=O)O[C@]12C` (stereo partly drawn) [E4′], the MIC in assay [1] (setting [6]) is greater than 27 µM.

Regarding `CC[C@H]1OC(=O)[C@H](C)[C@@H](O[C@H]2CC(C)(OC)[C@@H](O)[C@H](C)O2)[C@H](C)[C@@H](O[C@@H]2O[C@H](C)C[C@H](N(C)C)[C@H]2O)[C@](C)(OC)C[C@@H](C)C(=O)[C@H](C)[C@H]2N(NCc3cccnc3)C(=O)O[C@]12C` (stereo partly drawn) [D9′], the MIC in assay [1] (setting [6]) was greater than 15 µM.

Consider `CC[C@H]1OC(=O)[C@H](C)[C@@H](O[C@H]2CC(C)(OC)[C@@H](O)[C@H](C)O2)[C@H](C)[C@@H](O[C@@H]2O[C@H](C)C[C@H](N(C)C)[C@H]2O)[C@](C)(OC)C[C@@H](C)C(=O)[C@H](C)[C@H]2N(NCc3nc4ccccc4s3)C(=O)O[C@]12C` (stereo partly drawn) [F7′], for which the MIC in assay [1] (setting [6]) came to 16 µM (≈ 15 µg/mL).

For `CC[C@H]1OC(=O)[C@H](C)[C@@H](O[C@H]2CC(C)(OC)[C@@H](O)[C@H](C)O2)[C@H](C)[C@@H](O[C@@H]2O[C@H](C)C[C@H](N(C)C)[C@H]2O)[C@](C)(OC)C[C@@H](C)C(=O)[C@H](C)[C@H]2N(NCc3cc(C(=O)OC)c(C)o3)C(=O)O[C@]12C` (stereo partly drawn) [A12′], in assay [1] (setting [6]), the MIC is greater than 12 µM.

In the case of `CCC1OC(=O)C(C)(F)C(=O)C(C)C(OC2OC(C)CC(N(C)C)C2O)C(C)(OC)CC(C)C(=O)C(C)C2N(NCCCc3ccnc4ccccc34)C(=O)OC12C` (stereo not drawn) [RU3562], the MIC in assay [1] (setting [4]) was 16 µM (≈ 13 µg/mL).

With `CC[C@H]1OC(=O)[C@H](C)C(=O)[C@H](C)[C@@H](O[C@@H]2O[C@H](C)C[C@H](N(C)C)[C@H]2O)[C@](C)(OC)C[C@@H](C)C(=O)[C@H](C)[C@@H](O)[C@]1(C)O` [RU56006], the MIC in assay [1] (setting [5]) is recorded as greater than 128 µM.

Regarding `CCCCc1nc(CNN2C(=O)O[C@]3(C)[C@@H](CC)OC(=O)[C@H](C)[C@@H](O[C@H]4CC(C)(OC)[C@@H](O)[C@H](C)O4)[C@H](C)[C@@H](O[C@@H]4O[C@H](C)C[C@H](N(C)C)[C@H]4O)[C@](C)(OC)C[C@@H](C)C(=O)[C@H](C)[C@@H]23)c(Cl)[nH]1` (stereo partly drawn) [B7′], the minimal inhibitory concentration (MIC) in assay [1] (setting [6]) is greater than 19 µM.

Regarding `CC[C@H]1OC(=O)[C@H](C)C(=O)[C@H](C)[C@@H](O[C@@H]2O[C@H](C)C[C@H](N(C)C)[C@H]2O)[C@](C)(OC)C[C@@H](C)C(=NOCOCCOC)[C@H](C)[C@@H](O)[C@]1(C)O` [RU54615], the MIC in assay [1] (setting [5]) is recorded as greater than 128 µM.

`CC[C@H]1OC(=O)[C@H](C)[C@@H](O[C@H]2CC(C)(OC)[C@@H](O)[C@H](C)O2)[C@H](C)[C@@H](O[C@@H]2O[C@H](C)C[C@H](N(C)C)[C@H]2O)[C@](C)(OC)C[C@@H](C)C(=O)[C@H](C)[C@H]2N(NCc3nccn3C)C(=O)O[C@]12C` (stereo partly drawn) [B3′] yielded an MIC in assay [1] (setting [6]) greater than 18 µM.

Regarding `CC[C@H]1OC(=O)[C@H](C)[C@@H](O[C@H]2CC(C)(OC)[C@@H](O)[C@H](C)O2)[C@H](C)[C@@H](O[C@@H]2O[C@H](C)C[C@H](N(C)C)[C@H]2O)[C@](C)(OC)C[C@@H](C)C(=O)[C@H](C)[C@H]2N(NCc3csc(-c4ccccc4)n3)C(=O)O[C@]12C` (stereo partly drawn) [F9′], the MIC in assay [1] (setting [6]) was 12.6 µM (≈ 12.1 µg/mL).

Consider `CC[C@H]1OC(=O)[C@H](C)C(=O)[C@H](C)[C@@H](O[C@@H]2O[C@H](C)C[C@H](N(C)C)[C@H]2O)[C@](C)(OC)C[C@@H](C)C(=O)[C@H](C)[C@H]2N(NCCc3ccccc3)C(=O)O[C@]12C` [RU70645], for which, in assay [1] (setting [4]), the MIC is reported as 14 µM (≈ 10.2 µg/mL).

For `CC[C@H]1OC(=O)[C@H](C)[C@@H](O[C@H]2CC(C)(OC)[C@@H](O)[C@H](C)O2)[C@H](C)[C@@H](O[C@@H]2O[C@H](C)C[C@H](N(C)C)[C@H]2O)[C@](C)(OC)C[C@@H](C)C(=O)[C@H](C)[C@H]2N(NCc3cc(Br)cs3)C(=O)O[C@]12C` (stereo partly drawn) [F11′], the MIC in assay [1] (setting [6]) came out at 12.7 µM (≈ 12.2 µg/mL).
